# Data published in patent US10294202B2, “Pyrrolidinones as herbicides” (FMC Corporation, priority 2013, dated 2019).
# Where two headings read alike, the source gives them in different places.
# What was measured:
# galium = assay: Test C pre-/postemergence herbicide test; format: in vivo, Galium aparine
# How it was run: (§1)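 Test compounds, formulated in a surfactant-containing non-phytotoxic solvent blend, are applied to seeded loam/sand soil (preemergence) and to young plants at the 1- to 4-leaf stage in peat-based medium (postemergence). Plants stay 13 to 15 days under greenhouse conditions, then are scored visually relative to controls, 0 = no effect, 100 = complete control.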
# pigweed = assay: Test C pre-/postemergence herbicide test; format: in vivo, Amaranthus retroflexus
# Source text: (§2) Seeds of plant species selected from blackgrass (Alopecurus myosuroides), ryegrass, Italian (Italian ryegrass, Lolium multiflorum), wheat (winter wheat, Triticum aestivum), galium (catchweed bedstraw, Galium aparine), corn (Zea mays), crabgrass, large (large crabgrass, Digitaria sanguinalis), foxtail, giant (giant foxtail, Setaria faberii), johnsongrass (Sorghum halepense), lambsquarters (Chenopodium album), morningglory (Ipomoea coccinea), nutsedge, yellow (yellow nutsedge, Cyperus esculentus), pigweed (Amaranthus retroflexus), ragweed (common ragweed, Ambrosia elatior), soybean (Glycine max), barnyardgrass (Echinochloa crus-galli), oilseed rape (Brassica napus), waterhemp (common waterhemp, Amaranthus rudis), kochia (Kochia scoparia), oat, wild (wild oat, Avena fatua), surinam grass (Brachiaria decumbens), foxtail, green (green foxtail, Setaria viridis), goosegrass (Eleusine indica), bromegrass, downy (downy bromegrass, Bromus tectorum), nightshade (eastern black nightshade, Solanum ptycanthum), cocklebur (common cocklebur, Xanthium strumarium), cupgrass, woolly (woolly cupgrass, Eriochloa villosa), bermudagrass (Cynodon dactylon), sunflower, (common oilseed sunflower, Helianthus annuus), Russian thistle (Salsola kali) and velvetleaf (Abutilon theophrasti) were planted into a blend of loam soil and sand and treated preemergence with test chemicals formulated in a non-phytotoxic solvent mixture which included a surfactant. At the same time, plants selected from these crop and weed species and also barley (winter barley, Hordeum vulgare), […]), chickweed (common chickweed, Stellaria media), deadnettle (henbit deadnettle, Lamium amplexicaule), and canarygrass (littleseed canarygrass, Phalaris minor) were planted in pots containing Redi-Earth® planting medium (Scotts Company, 14111 Scottslawn Road, Marysville, Ohio 43041) comprising spaghnum peat moss, vermiculite, wetting agent and starter nutrients and treated with postemergence applications of test chemicals formulated in the same manner. Plants ranged in height from 2 to 18 cm (1- to 4-leaf stage) for postemergence treatments. Treated plants and controls were maintained in a greenhouse for 13 to 15 days, after which time all species were compared to controls and visually evaluated. Plant response ratings, summarized in Table C, are based on a scale of 0 to 100 where 0 is no effect and 100 is complete control. A dash (-) response means no test result.
# lambsquarters = assay: Test C pre-/postemergence herbicide test; format: in vivo, Chenopodium album
# How it was run: as §1
# barnyardgrass = assay: Test A pre-/postemergence herbicide test; format: in vivo, Echinochloa crus-galli; conditions: for Barnyardgrass plant response rating: Preemergence, visual rating on 0 to 100 scale (0 no effect, 100 complete control)
# How it was run: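 Planted in loam–sand blend; treated the same day preemergence by directed soil spray, while separately grown plants at one- to two-leaf stage got postemergence spray. Compared visually with untreated controls after approximately 10 days; 100 means complete control.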
# foxtail, giant = assay: Test C pre-/postemergence herbicide test; format: in vivo, Setaria faberii
# Source text: as §2
# blackgrass = assay: Test C pre-/postemergence herbicide test; format: in vivo, Alopecurus myosuroides
# Source text: as §2
# crabgrass, large = assay: Test C pre-/postemergence herbicide test; format: in vivo, Digitaria sanguinalis
# Source text: as §2
# corn = assay: Test C pre-/postemergence herbicide test; format: in vivo, Zea mays
# Source text: as §2
# velvetleaf = assay: Test C pre-/postemergence herbicide test; format: in vivo, Abutilon theophrasti
# Source text: as §2
# [1] = Postemergence, 31 g ai/ha, scale 0 (no effect) to 100 (complete control)
# [2] = Postemergence, 62 g ai/ha, scale 0 to 100 (0 no effect, 100 complete control)
# [3] = Postemergence, 125 g ai/ha, scale 0 to 100 (0 no effect, 100 complete control)
# [4] = Postemergence, 250 g ai/ha, scale 0 to 100 (0 no effect, 100 complete control)
# [5] = Preemergence, 31 g ai/ha, scale 0 to 100, 0 is no effect and 100 is complete control
# [6] = Preemergence, 62 g ai/ha, scale 0 to 100
# [7] = Preemergence, 125 g ai/ha, scale 0 to 100 (0 no effect, 100 complete control)
# [8] = Preemergence, 31 g ai/ha, scale 0 to 100 (0 no effect, 100 complete control)
# [9] = Preemergence, 250 g ai/ha, scale 0 to 100 (0 no effect, 100 complete control)
smiles,measurement,setting,value
O=C1NCC(c2ccc(F)c(F)c2)C1C(=O)Nc1cccc(F)c1F (racemic) [Compound 101],"Plant response rating, Galium",galium; [1],50
same,"Plant response rating, Galium",galium; [2],50
same,"Plant response rating, Galium",galium; [3],30
same,"Plant response rating, Galium",galium; [4],70
same,Galium plant response rating,galium; [5],0
same,"Plant response rating, Galium",galium; [6],40
same,"Plant response rating, Galium",galium; [7],90
same,"Plant response rating (scale of 0 to 100), Galium","galium; Preemergence, 250 g ai/ha",85
same,"Plant response rating, Pigweed",pigweed; [1],0
same,"Plant response rating, Pigweed",pigweed; [2],10
same,"Plant response rating, Pigweed",pigweed; [3],15
same,"Plant response rating, Pigweed",pigweed; [4],45
same,Pigweed plant response rating,pigweed; [5],0
same,"Plant response rating, Pigweed",pigweed; [6],0
same,"Plant response rating, Pigweed",pigweed; [7],55
same,"Plant response rating (scale of 0 to 100), Pigweed","pigweed; Preemergence, 250 g ai/ha",85
same,"Plant response rating, Lambsquarters",lambsquarters; [1],10
same,"Plant response rating, Lambsquarters",lambsquarters; [2],25
same,"Plant response rating, Lambsquarters",lambsquarters; [3],35
same,"Plant response rating, Lambsquarters",lambsquarters; [4],70
same,Lambsquarters plant response rating,lambsquarters; [5],30
same,"Plant response rating, Lambsquarters",lambsquarters; [6],85
same,"Plant response rating, Lambsquarters",lambsquarters; [7],90
same,"Plant response rating (scale of 0 to 100), Lambsquarters","lambsquarters; Preemergence, 250 g ai/ha",90
same,"Plant response rating, Barnyardgrass","barnyardgrass; Postemergence, 125 g ai/ha, 0 to 100 scale, 0 no effect, 100 complete control",80
same,"Plant response rating, Barnyardgrass","barnyardgrass; Postemergence, 500 g ai/ha, 0 to 100 scale (0 no effect, 100 complete control)",90
same,Barnyardgrass plant response rating,barnyardgrass; 125 g ai/ha,90
same,"Plant response rating, Barnyardgrass","barnyardgrass; preemergence, 500 g ai/ha, 0 to 100 scale (0 no effect, 100 complete control)",90
same,"Plant response rating, Foxtail, Giant","foxtail, giant; [1]",0
same,"Plant response rating, Foxtail, Giant","foxtail, giant; [2]",20
same,"Plant response rating, Foxtail, Giant","foxtail, giant; [3]",75
same,"Plant response rating, Foxtail, Giant","foxtail, giant; [4]",90
same,"Foxtail, Giant plant response rating","foxtail, giant; [5]",95
same,"Plant response rating, Foxtail, Giant","foxtail, giant; [6]",95
same,"Plant response rating, Foxtail, Giant","foxtail, giant; [7]",98
same,"Plant response rating (scale of 0 to 100), Foxtail, Giant","foxtail, giant; Preemergence, 250 g ai/ha",98
same,"Plant response rating, Blackgrass",blackgrass; [1],0
same,"Plant response rating, Blackgrass",blackgrass; [2],0
same,"Plant response rating, Blackgrass",blackgrass; [3],10
same,"Plant response rating, Blackgrass",blackgrass; [4],5
same,Blackgrass plant response rating,blackgrass; [5],0
same,"Plant response rating, Blackgrass",blackgrass; [6],50
same,"Plant response rating, Blackgrass",blackgrass; [7],70
same,"Plant response rating (scale of 0 to 100), Blackgrass","blackgrass; Preemergence, 250 g ai/ha",90
same,"Plant response rating, Crabgrass, Large","crabgrass, large; [1]",25
same,"Plant response rating, Crabgrass, Large","crabgrass, large; [2]",50
same,"Plant response rating, Crabgrass, Large","crabgrass, large; [3]",80
same,"Plant response rating, Crabgrass, Large","crabgrass, large; [4]",85
same,"Crabgrass, Large plant response rating","crabgrass, large; [5]",95
same,"Plant response rating, Crabgrass, Large","crabgrass, large; [6]",98
same,"Plant response rating, Crabgrass, Large","crabgrass, large; [7]",98
same,"Plant response rating (scale of 0 to 100), Crabgrass, Large","crabgrass, large; Preemergence, 250 g ai/ha",100
same,"Plant response rating, Corn",corn; [1],0
same,"Plant response rating, Corn",corn; [2],0
same,"Plant response rating, Corn",corn; [3],0
same,"Plant response rating, Corn",corn; [4],0
same,Corn plant response rating,corn; [5],0
same,"Plant response rating, Corn",corn; [6],0
same,"Plant response rating, Corn",corn; [7],5
same,"Plant response rating (scale of 0 to 100), Corn","corn; Preemergence, 250 g ai/ha",65
same,"Plant response rating, Velvetleaf",velvetleaf; [1],0
same,"Plant response rating, Velvetleaf",velvetleaf; [2],0
same,"Plant response rating, Velvetleaf",velvetleaf; [3],10
same,"Plant response rating, Velvetleaf",velvetleaf; [4],30
same,Velvetleaf plant response rating,velvetleaf; [5],15
same,"Plant response rating, Velvetleaf",velvetleaf; [6],0
same,"Plant response rating, Velvetleaf",velvetleaf; [7],5
same,"Plant response rating (scale of 0 to 100), Velvetleaf","velvetleaf; Preemergence, 250 g ai/ha",70
"O=C1NCCC1C(=O)N(c1ccc(F)c(F)c1)c1ccccc1F (stereo not shown) [Compound 5, N-(3,4-difluorophenyl)-N-(2-fluorophenyl)-2-oxo-3-pyrrolidinecarboxamide]","Plant response rating, Galium",galium; [6],5
same,Galium plant response rating,galium; [8],0
same,"Plant response rating, Galium",galium; [9],40
same,"Plant response rating, Pigweed",pigweed; [6],0
same,"Plant response rating, Pigweed",pigweed; [7],0
same,"Plant response rating, Lambsquarters",lambsquarters; [6],95
same,"Plant response rating, Lambsquarters",lambsquarters; [7],95
same,pest or weed control at 125 g/ha,"barnyardgrass; Echinochloa crus-galli, post-emergence, 240 h, Postemergence, 125 g ai/ha, 0 to 100 scale, 0 no effect, 100 complete control, read-out: Plant response rating, Barnyardgrass",60%
same,pest or weed control at 500 g/ha,"barnyardgrass; Echinochloa crus-galli, post-emergence, 240 h, Postemergence, 500 g ai/ha, 0 to 100 scale (0 no effect, 100 complete control), read-out: Plant response rating, Barnyardgrass",90%
same,pest or weed control at 500 g/ha,"barnyardgrass; Echinochloa crus-galli, pre-emergence, 240 h, preemergence, 500 g ai/ha, 0 to 100 scale (0 no effect, 100 complete control), read-out: Plant response rating, Barnyardgrass",90%
same,Barnyardgrass plant response rating,barnyardgrass; 125 g ai/ha,70
same,"Plant response rating, Foxtail, Giant","foxtail, giant; [6]",100
same,"Plant response rating, Foxtail, Giant","foxtail, giant; [7]",100
same,"Foxtail, Giant plant response rating","foxtail, giant; [8]",95
same,"Plant response rating, Foxtail, Giant","foxtail, giant; [9]",100
same,"Plant response rating, Blackgrass",blackgrass; [6],0
same,"Plant response rating, Blackgrass",blackgrass; [7],0
same,Blackgrass plant response rating,blackgrass; [8],0
same,"Plant response rating, Blackgrass",blackgrass; [9],30
same,"Plant response rating, Crabgrass, Large","crabgrass, large; [6]",100
same,"Plant response rating, Crabgrass, Large","crabgrass, large; [7]",100
same,"Crabgrass, Large plant response rating","crabgrass, large; [8]",100
same,"Plant response rating, Crabgrass, Large","crabgrass, large; [9]",100
same,"Plant response rating, Corn",corn; [6],0
same,"Plant response rating, Corn",corn; [7],0
same,Corn plant response rating,corn; [8],0
same,"Plant response rating, Corn",corn; [9],0
same,"Plant response rating, Velvetleaf",velvetleaf; [6],0
same,"Plant response rating, Velvetleaf",velvetleaf; [7],0
